Measurements published in ChEMBL document CHEMBL1201862, “PubChem BioAssay data set” (2004).
The source made the active and inactive calls.

Tests used:
[1] = M. tuberculosis H37Rv growth inhibitors, H37Rv strain (AID 1626); type: functional
[2] = Artemis endonuclease inhibitor potency, dose response, biochemical, fluorescence intensity (AID 720701); type: functional;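 also: Artemis endonuclease enzyme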
H9c2 = experiment: cells; type: functional, cell-based; conditions: Rattus norvegicus, H9c2, Myocardium;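 also: confirmatory concentration-response retest of ultra-high-throughput screening hits for modulation of myocardial damage; cell death induced by hydrogen peroxide oxidative stress; compound pretreatment for 60 min then peroxide exposure for 2 h; potency is for protecting the cells against peroxide damage rather than for killing them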
[3] = HepG2 cell cytotoxicity, dose response, cytotoxicity control for Shn3 inhibitor project, CellTiter-Glo, cherry-picked (AID 624134); type: functional, cell-based
[4] = inhibitors of PGC1a acetylation in cells, dose response, cell-based, cherry-picked samples (AID 720514); type: functional;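 also: potency may reflect raised or lowered acetylation signal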
[5] = molecular target: Heat shock protein HSP 90-alpha (Homo sapiens, UniProt P07900); type: functional, organism-based
[6] = Shn3 3'UTR reporter inhibitors, dose response, cell-based, Clone20 osteoblasts, firefly luciferase, cherry-picked (AID 624132); type: functional;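 also: firefly luciferase luminescence from reporter carrying the Shn3 3'UTR in osteoblasts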
Vero [7] = experiment: West Nile virus antiviral activity, cell-based, CPE readout (AID 1621); type: functional; conditions: Chlorocebus sabaeus
Vero [8] = experiment: host cell cytotoxicity of antiviral hits, dose response, cytotoxicity control for West Nile virus antiviral project, secondary assay (AID 1650); type: functional; conditions: Chlorocebus sabaeus
[9] = molecular target: T1, COUP transcription factor 2 (Homo sapiens, UniProt P24468); experiment: Luminescence-based cell-based high throughput dose response assay to identify inhibitors of COUP-TFII (NR2F2).; type: functional;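 also: HEK293 cells transiently cotransfected with COUP-TFII expression vector and reporter; luciferase reporter luminescence driven by COUP-TFII from the pX2-168 reporter plasmid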
T1 sequence (P24468 whole entry): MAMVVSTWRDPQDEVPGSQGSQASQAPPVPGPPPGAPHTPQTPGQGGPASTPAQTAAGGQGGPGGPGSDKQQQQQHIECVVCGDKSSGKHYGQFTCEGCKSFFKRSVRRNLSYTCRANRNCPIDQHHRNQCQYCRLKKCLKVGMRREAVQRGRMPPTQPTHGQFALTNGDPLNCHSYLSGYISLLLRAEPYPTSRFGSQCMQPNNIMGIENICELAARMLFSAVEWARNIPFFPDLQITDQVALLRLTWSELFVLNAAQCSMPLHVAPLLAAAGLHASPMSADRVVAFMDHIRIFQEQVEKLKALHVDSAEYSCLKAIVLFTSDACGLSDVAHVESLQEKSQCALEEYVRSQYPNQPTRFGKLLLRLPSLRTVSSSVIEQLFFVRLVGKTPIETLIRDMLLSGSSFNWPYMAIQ

[10] = inhibitors of intracellular T. cruzi replication, confirmation, NIH3T3 host cells, beta-gal luminescence (AID 2044); type: functional, cell-based;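 also: intracellular parasites grown in NIH/3T3 mouse fibroblasts as host cells; luminescent beta-galactosidase reporter signal from transgenic T. cruzi replicating inside host cells; inhibitors lower the luminescence signal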
[11] = molecular target: T2, Heat shock factor protein 1 (Mus musculus, UniProt P38532); experiment: inhibition of MG132-induced HSE-luciferase signal, confirmation, cell-based, NIH3T3, luminescence, dose retest (AID 2382); type: functional;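 also: NIH3T3 fibroblasts with HSF1-driven luciferase reporter stressed by proteasome inhibitor MG132; luminescence from HSF1-driven luciferase expression after 8 hours of MG132 stress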
T2 sequence (P38532 whole entry): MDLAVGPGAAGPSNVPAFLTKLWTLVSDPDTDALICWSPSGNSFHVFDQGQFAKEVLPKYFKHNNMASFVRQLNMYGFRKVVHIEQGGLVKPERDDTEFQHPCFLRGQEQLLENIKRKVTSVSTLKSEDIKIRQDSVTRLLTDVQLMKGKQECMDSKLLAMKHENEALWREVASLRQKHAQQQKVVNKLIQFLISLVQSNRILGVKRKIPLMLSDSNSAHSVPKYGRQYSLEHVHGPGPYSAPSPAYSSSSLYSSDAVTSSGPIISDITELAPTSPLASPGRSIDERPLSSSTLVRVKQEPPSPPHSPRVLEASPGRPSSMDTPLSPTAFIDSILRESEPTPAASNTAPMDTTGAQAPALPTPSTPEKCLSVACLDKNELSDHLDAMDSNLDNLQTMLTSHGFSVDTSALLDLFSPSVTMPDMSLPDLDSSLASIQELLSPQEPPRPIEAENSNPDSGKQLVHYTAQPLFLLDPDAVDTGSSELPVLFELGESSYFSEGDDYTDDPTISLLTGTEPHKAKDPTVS

[12] = control 3'UTR Renilla luciferase suppression, dose response, counter-screen for Shn3 inhibitor project, cell-based, Clone20-Shn3RL, cherry-picked (AID 624133); type: functional
[13] = inhibitors of Vif binding to APOBEC3G peptide, primary screen, biochemical, TR-FRET, GST-Vif 1-94, biotin-A3G peptide, dose response retest (AID 1117319); type: functional;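 also: TR-FRET signal of purified GST-Vif binding a biotinylated A3G peptide; inhibitors lower the FRET signal by blocking Vif and A3G binding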
Coagulation factor XII = molecular target: T3, Coagulation factor XII (Homo sapiens, UniProt P00748); type: functional;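 also: activated factor XIIa alpha cleaving a fluorogenic AMC peptide substrate; inhibitor potency from loss of enzyme activity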
T3 sequence (P00748 whole entry): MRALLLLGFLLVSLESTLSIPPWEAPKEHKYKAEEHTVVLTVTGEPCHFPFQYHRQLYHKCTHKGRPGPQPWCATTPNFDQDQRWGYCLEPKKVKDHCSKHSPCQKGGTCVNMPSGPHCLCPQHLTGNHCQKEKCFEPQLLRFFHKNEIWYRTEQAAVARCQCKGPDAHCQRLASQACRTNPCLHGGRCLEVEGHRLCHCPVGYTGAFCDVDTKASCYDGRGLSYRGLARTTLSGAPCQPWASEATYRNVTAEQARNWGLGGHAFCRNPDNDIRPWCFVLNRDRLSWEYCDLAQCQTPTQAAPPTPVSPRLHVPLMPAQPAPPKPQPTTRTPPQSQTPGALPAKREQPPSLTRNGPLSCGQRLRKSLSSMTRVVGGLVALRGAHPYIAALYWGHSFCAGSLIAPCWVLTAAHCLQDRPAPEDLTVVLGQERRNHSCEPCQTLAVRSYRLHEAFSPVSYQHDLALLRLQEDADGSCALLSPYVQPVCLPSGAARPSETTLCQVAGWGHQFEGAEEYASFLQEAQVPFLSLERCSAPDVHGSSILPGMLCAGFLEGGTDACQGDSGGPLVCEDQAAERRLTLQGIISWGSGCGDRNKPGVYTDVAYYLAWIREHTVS

[14] = molecular target: T4, Lytic switch protein BZLF1 (Epstein-Barr virus (strain B95-8) (HHV-4) (Human herpesvirus 4), UniProt P03206); experiment: EBV ZTA inhibitors, dose response, counter-screen for EBNA-1 inhibitor project, biochemical, fluorescence polarization, Epstein-Barr virus, 1536-well (AID 2377); set-up: species or system human gammaherpesvirus 4;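 also: fluorescence polarization of Cy5-labelled ZRE DNA probe bound by purified Zta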
T4 sequence (P03206 whole entry): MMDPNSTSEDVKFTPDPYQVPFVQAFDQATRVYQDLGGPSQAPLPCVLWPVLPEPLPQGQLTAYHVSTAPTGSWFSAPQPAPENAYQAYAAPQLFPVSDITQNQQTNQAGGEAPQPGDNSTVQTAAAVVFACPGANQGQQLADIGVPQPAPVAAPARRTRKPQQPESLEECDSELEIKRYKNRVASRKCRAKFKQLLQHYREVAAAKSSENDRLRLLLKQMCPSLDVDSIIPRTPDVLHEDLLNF

[15] = molecular target: T5, Epstein-Barr nuclear antigen 1 (Epstein-Barr virus (strain B95-8) (HHV-4) (Human herpesvirus 4), UniProt P03211); experiment: EBNA-1 inhibitors, dose response, biochemical, fluorescence polarization, 1536-well (AID 2381); set-up: species or system human gammaherpesvirus 4;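 also: fluorescence polarization of a Cy5 DNA probe bound by EBNA-1 protein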
T5 sequence (P03211 whole entry): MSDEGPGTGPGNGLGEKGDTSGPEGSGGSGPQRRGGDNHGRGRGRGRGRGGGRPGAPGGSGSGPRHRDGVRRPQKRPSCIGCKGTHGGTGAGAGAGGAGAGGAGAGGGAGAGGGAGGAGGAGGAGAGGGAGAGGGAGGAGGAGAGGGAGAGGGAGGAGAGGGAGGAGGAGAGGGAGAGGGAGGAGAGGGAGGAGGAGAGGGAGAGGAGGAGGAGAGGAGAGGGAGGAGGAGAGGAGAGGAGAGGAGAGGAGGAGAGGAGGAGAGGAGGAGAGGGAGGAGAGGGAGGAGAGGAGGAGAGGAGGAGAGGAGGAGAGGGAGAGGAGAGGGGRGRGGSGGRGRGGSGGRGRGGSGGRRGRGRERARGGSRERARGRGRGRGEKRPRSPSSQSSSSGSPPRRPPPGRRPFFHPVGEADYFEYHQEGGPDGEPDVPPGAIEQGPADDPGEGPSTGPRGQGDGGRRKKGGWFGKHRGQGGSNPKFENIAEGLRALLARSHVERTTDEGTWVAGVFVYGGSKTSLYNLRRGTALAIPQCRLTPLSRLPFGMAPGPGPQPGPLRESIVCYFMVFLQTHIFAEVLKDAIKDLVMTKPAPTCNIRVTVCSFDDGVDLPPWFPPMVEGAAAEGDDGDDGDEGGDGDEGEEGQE

[16] = Vero cell cytotoxicity, dose response, cytotoxicity control for Vif-APOBEC3G degradation inhibitor project, Vero cells (AID 1117358); type: functional; conditions: Human immunodeficiency virus 1, Vero
[17] = molecular target: Luciferin 4-monooxygenase (Photinus pyralis, UniProt P08659); experiment: firefly luciferase enzyme inhibitors, dose response, biochemical, luminescence (AID 1891)
[18] = Luminescence Cell-Based Dose Confirmation HTS to Identify Inhibitors of Platelet Dense Granule Release. [Related pubchem assays: 1663 (Primary HTS), 1678 (Summary of Project)]; type: functional
Cytochrome P450 1A2 = molecular target: T6, Cytochrome P450 1A2 (Homo sapiens, UniProt P05177);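 also: PubChem cytochrome P450 panel assay, CYP1A2 panel member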
T6 sequence (P05177 whole entry): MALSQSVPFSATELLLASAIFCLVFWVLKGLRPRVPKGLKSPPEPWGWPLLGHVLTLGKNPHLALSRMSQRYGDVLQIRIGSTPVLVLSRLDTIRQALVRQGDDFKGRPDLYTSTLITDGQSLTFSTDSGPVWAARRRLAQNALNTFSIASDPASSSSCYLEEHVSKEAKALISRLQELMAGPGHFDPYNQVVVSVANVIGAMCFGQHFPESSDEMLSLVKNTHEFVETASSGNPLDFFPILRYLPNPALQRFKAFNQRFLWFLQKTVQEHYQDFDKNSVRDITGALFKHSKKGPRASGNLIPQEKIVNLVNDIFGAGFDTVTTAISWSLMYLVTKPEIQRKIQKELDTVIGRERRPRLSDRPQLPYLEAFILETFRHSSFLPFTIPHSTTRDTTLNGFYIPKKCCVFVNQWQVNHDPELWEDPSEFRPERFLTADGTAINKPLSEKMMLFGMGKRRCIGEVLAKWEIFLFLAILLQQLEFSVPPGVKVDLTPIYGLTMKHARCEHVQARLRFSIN

Cytochrome P450 2C19 = Cytochrome P450 2C19 (Homo sapiens, UniProt P33261); experiment: Cytochrome panel assay with activity outcomes. Panel member name: p450-cyp2c19 Compounds with AC50 equal or less than 10 uM are considered active; type: functional; conditions: read-out: AC50
[19] = P. falciparum ATP4 D1247Y mutant growth inhibitors, dose response, NITD609-resistant line, SYBR Green, dry powder (AID 1159571); type: functional, cell-based;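 also: parasites synchronized at ring stage by sorbitol before testing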
[20] = HepG2 cell cytotoxicity, dose response, cytotoxicity control, cherry-picked samples (AID 1159577); type: functional, cell-based
[21] = P. falciparum 3D7-ScDHODH growth inhibitors, dose response, SYBR Green, dry powder samples (AID 1159570); type: functional, cell-based;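 also: parasite growth measured after 72 hours of compound exposure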
[22] = P. falciparum Dd2 growth inhibitors, dose response, SYBR Green, dry powder samples (AID 1159566); type: functional, cell-based;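 also: potency for growth inhibition with lower SYBR green DNA signal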
[23] = P. falciparum Dd2 growth inhibitors, dose response, SYBR Green, cherry-picked samples (AID 1159567); type: functional, cell-based

Cytochrome P450 2C19, sequence (P33261 whole entry): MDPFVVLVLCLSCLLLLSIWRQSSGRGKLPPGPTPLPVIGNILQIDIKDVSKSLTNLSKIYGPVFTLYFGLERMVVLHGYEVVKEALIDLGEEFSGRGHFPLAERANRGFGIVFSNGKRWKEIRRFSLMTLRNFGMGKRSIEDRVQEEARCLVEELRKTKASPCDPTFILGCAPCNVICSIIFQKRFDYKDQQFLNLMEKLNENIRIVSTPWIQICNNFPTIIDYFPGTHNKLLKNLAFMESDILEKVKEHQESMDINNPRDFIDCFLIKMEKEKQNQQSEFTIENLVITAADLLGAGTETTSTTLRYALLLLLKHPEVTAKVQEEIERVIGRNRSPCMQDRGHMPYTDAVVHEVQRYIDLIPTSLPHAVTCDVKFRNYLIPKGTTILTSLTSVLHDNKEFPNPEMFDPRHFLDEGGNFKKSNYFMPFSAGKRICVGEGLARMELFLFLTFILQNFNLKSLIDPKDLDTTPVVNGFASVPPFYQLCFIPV
Luciferin 4-monooxygenase, sequence (P08659 whole entry): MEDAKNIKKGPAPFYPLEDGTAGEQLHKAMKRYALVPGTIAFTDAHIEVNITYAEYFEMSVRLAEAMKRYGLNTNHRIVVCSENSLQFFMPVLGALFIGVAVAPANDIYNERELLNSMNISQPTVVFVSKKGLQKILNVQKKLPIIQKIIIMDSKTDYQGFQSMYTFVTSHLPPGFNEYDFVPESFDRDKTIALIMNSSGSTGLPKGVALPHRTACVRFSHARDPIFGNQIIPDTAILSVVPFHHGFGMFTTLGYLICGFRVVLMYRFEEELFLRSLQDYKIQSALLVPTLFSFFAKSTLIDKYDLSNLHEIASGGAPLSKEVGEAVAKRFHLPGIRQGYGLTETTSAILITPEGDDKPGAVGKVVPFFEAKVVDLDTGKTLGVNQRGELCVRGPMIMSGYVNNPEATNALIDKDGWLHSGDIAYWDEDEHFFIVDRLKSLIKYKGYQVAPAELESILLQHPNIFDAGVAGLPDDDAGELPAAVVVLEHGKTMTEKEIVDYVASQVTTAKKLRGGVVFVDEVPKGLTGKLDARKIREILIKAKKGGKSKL

CCOC(=O)c1ccc(NC(=O)CCc2c(C)nc3ncnn3c2C)cc1
IC50 [1]: > 100 µM (active)

Cc1nc(NC(=O)c2cc3c(C)nn(-c4ccccc4)c3s2)sc1C(=O)Nc1ccccc1
IC50 [2]: 1.22 µM (active) | IC50 (H9c2): > 79 µM (inactive)

C[C@H]1C[C@@H](C)C(=O)[C@@H]([C@H](O)CC2CC(=O)NC(=O)C2)C1
AC50 [3]: > 70 µM (inactive) | AC50 [4]: 4.92 µM (active) | EC50 (cells): < 0.004 µM (active) | AC50 [5]: < 0.195 µM (active) | AC50 [6]: 0.307 µM (active) | IC50 (Vero [7]): 0.43 µM (active) | CC50 (Vero [8]): 0.96 µM (active) | IC50 [9]: 1.03 µM (active) | EC50 [10]: < 0.1 µM (active) | EC50 [11]: 0.66 µM (active) | AC50 [12]: 2.18 µM (active)

O=C1CN(C(=O)COC(=O)c2oc3ccccc3c2COc2ccccc2)c2ccccc2N1
IC50 [13]: > 100 µM (active) | IC50 (Coagulation factor XII): > 50 µM (inactive)

Cc1ccc(Nc2nc(NCC3CCCO3)nc(N)c2[N+](=O)[O-])cc1C (stereo not given)
IC50 [14]: > 111 µM (not active) | IC50 [15]: 6.09 µM (active)

CCCc1nn(C)c(C(=O)Nc2ccc(CC)cc2)c1Cl
IC50 [1]: > 100 µM (active)

CCOc1cc(C(=O)OCC(=O)c2c(N)n(C)c(=O)n(C)c2=O)cc(OCC)c1OCC
IC50 [14]: > 111 µM (not active) | IC50 [15]: 19.3 µM (not active)

COc1ccc(C(=O)Nc2ccc(O)c3c(=O)cc(-c4cccc(Cl)c4)oc23)cc1
IC50 (Vero [7]): > 100 µM (active) | CC50 (Vero [8]): 2.74 µM (active)

COC(=O)c1c(NC(=O)C(Cl)Cl)sc2c1C(C(=O)OC)CC2 (stereo not given)
IC50 (Vero [7]): 27.8 µM (active) | CC50 (Vero [8]): 34.8 µM (active)

CCc1nnc(NC(=O)c2ccc(S(=O)(=O)N(CC(C)C)CC(C)C)cc2)o1
CC50 [16]: > 40 µM (active)

CC(OC(=O)/C=C/c1ccco1)C(=O)NC1CCCCC1 (stereo not given)
IC50 [13]: > 100 µM (active)

COc1ccccc1NC(=O)c1cc2ccc(O)cc2o/c1=N\O
EC50 [17]: 1.03 µM (active) | IC50 [13]: > 100 µM (active) | EC50 [18]: 6.14 µM (active) | CC50 [16]: > 40 µM (active)

O=C(N/N=C\c1ccc(-c2ccccc2[N+](=O)[O-])o1)C1COc2cc3ccccc3cc2O1 (stereo not given)
IC50 [2]: > 20 µM (inactive) | AC50 (Cytochrome P450 1A2): 3.55 µM (inconclusive) | AC50 (Cytochrome P450 2C19): 1.12 µM (inconclusive)

COc1ccc(NC(=O)N(C)C[C@@H]2Oc3c(NC(=O)c4nc5ccccc5s4)cccc3C(=O)N([C@@H](C)CO)C[C@H]2C)cc1
AC50 [19]: 0.606 µM (active) | AC50 [20]: > 39 µM (inactive) | AC50 [21]: 0.499 µM (active) | AC50 [22]: 1.3 µM (active) | AC50 [23]: 1.96 µM (active)

COc1ccc2c3c(n(C)c2c1)[C@@H](CO)N(C(=O)C1CCC1)CC31CN(C(=O)Nc2cccc(F)c2)C1
AC50 [19]: 0.535 µM (active) | AC50 [21]: 0.515 µM (active) | AC50 [22]: 0.779 µM (active) | AC50 [23]: 2.35 µM (active)

N#C[C@@H]1[C@H](c2ccc(C#CC3CCCCC3)cc2)[C@@H](CO)N1C(=O)Nc1ccc(F)cc1
AC50 [20]: 14 µM (active) | AC50 [23]: 7.33 µM (active)
